According to US20030050293A1, “Use of dehydroepiandrosterone, its precursors and derivatives, by oral administration, as hydrating agents with direct action” (priority 2000, published 2003):

Columns and labels:
[1] = test system: skin on the ventral side of the forearm of healthy volunteers; experiment: Evaluation of the moisturization of the skin by electrical conductance (Dermodiag), randomized double-blind clinical study; format: in vivo, human; conditions: for moisturization of the skin vs placebo (Wilcoxon test): 12 months oral 50 mg daily; for Conductance: 50 mg daily oral
Description: (§1) The evaluation was carried out using a randomized double-blind clinical study among 280 individuals (140 men and 140 women). The inclusion criteria was as follows: healthy volunteers, of both sexes, free of any severe pathological condition and 60 to 80 years old.
(§2) The treatment consisted, for 12 months, of a daily dose of 50 mg of DHEA, taken in the morning, in the form of a breakable tablet, for half of the individuals, or of a placebo for the other half of the individuals.
The moisturization of the skin on the ventral side of the forearm is measured, blind, at the start of treatment (T0) and at the end of treatment (T12), by the same clinician, using a Dermodiag®, which is a device described in patent U.S. Pat. No. 5,001,436. The characteristics of the device are as follows: outlet impedance: 1.4 kOhms and working frequency 10 MHz. The method used is that described by J. L. Lévêque, Soc. Cosmet. Chem. (1983), 34, 419-428.
This device makes it possible to evaluate the state of moisturization (water content of the superficial layers of the epidermis) by measuring electrical conductance. The conductance is measured using an electrode applied to the skin for 10 seconds. The conductance value is the result of the mean of 6 individual measurements per measurement time.
(§3) The statistical analysis is performed using the Wilcoxon test.

[2] = test system: sebaceous glands of the skin of healthy volunteers; experiment: Evaluation of the production of sebum (Sebutape patches, number of spots by image analysis), randomized double-blind clinical study; format: in vivo, human; conditions: for variation in seborrhea vs placebo (Wilcoxon test): 12 months oral 50 mg daily; for Number of spots: 50 mg daily oral
Description: as §1, §2
The production of sebum is measured at the start of treatment (T0) and at the end of treatment (T12) according to the techniques described by A. M. Kligman et al., J. Soc. Cosmet. Chem. (1986), 37, 369-373 and by K. M. Nordstrom et al., J. Invest. Dermatol. (1986), 87, 260-264.
White adhesive microporous patches (Sebutape®, Cuderm Corporation, Dallas, Tex., USA) described in U.S. Pat. No. 4,532,937 are used; the patches are applied in a standardized manner to the skin, which has been wiped 10 times, beforehand, with cotton soaked in 70° alcohol in order to remove any fat. The lipids which are passively absorbed onto the patches are visualized by the presence of transparent spots, themselves measured by image analysis.
Each spot represents an active sebaceous gland.
as §3

[3] = men, T0 (start of treatment), DHEA group
[4] = men, T12 (end of 12 months treatment)
[5] = women, T0 (start of treatment), DHEA group
[6] = women, T12 (end of 12 months treatment)

## C[C@]12CC[C@H](O)CC1=CC[C@@H]1[C@@H]2CC[C@]2(C)C(=O)CC[C@@H]12 [DHEA, Dehydroepiandrosterone]
[1]; men, p=0.03
  moisturization of the skin vs placebo (Wilcoxon test): significant improvement
[1]; [3]
  Conductance: 69
[1]; [4]
  Conductance: 86
[1]; men, treated group, T12 vs T0, 50 mg daily oral (placebo +21%, p=0.03)
  improvement of the moisturization of the skin, measured by conductance: 26%
[1]; women, p=0.44
  moisturization of the skin vs placebo (Wilcoxon test): without significant variation in the moisturization of the skin
[1]; [5]
  Conductance: 64
[1]; [6]
  Conductance: 84
[2]; men, p=0.46
  variation in seborrhea vs placebo (Wilcoxon test): no significant variation in seborrhea
[2]; [3]
  Number of spots: 55
[2]; [4]
  Number of spots: 140
[2]; women, p=0.0001
  variation in seborrhea vs placebo (Wilcoxon test): significant variation in seborrhea
[2]; [5]
  Number of spots: 2
[2]; [6]
  Number of spots: 56
